Measurements published in paper PMC6838110 (Nature Communications, 2019).

Assays:
[1] = test system: CTG-0828 NSCLC PDX; assay: PDX efficacy study; type: in vivo, mice; conditions: AZD7648 single agent
Experimental: (§1) Immunocompromised SCID (C.B-17/IcrHan®Hsd-Prkdc^scid) or Hsd:Athymic Nude-Foxn1^nu female mice (Envigo) were used for tumour implantation. […] When dosed twice daily, the time between the morning and evening doses was 8 h. Targeted irradiation of 2 Gy was delivered over 2 min daily over the first 5 days of treatment. Liposomal doxorubicin (Doxoves) was diluted in physiological saline and intravenously dosed at 2.5 or 5 mg kg^−1 once per week. Olaparib was formulated in 10% DMSO/30% Kleptose and orally dosed at 100 mg kg^−1 once daily. […] Statistical significance was evaluated using a one-tailed t-test. All in vivo studies complied with all relevant ethical regulations for animal testing and research, followed AstraZeneca’s global bioethics policy and received ethical approval from the AstraZeneca ethical committee. HBCx-17 PDX study was carried out at XenTech, France in accordance with French regulatory legislation concerning the protection of laboratory animals. CTG-703, CTG-0828 and CTG-0149 PDX studies were carried out at Champions Oncology, Inc., USA in accordance to the guidelines of the Institutional Animal Care and Use Committee (IACUC) of Champions Oncology and the USA regulatory legislation. CDX and OV2022 PDX studies were conducted in the UK in accordance with UK Home Office legislation, the Animal Scientific Procedures Act 1986 and the Home Office project licences 70/8839, 70/8894 and P0EC1FFDF. […]
(§2) SCID mice were surgically implanted subcutaneously with tumour fragments from donor mice. Tumours were measured (length x width) by bilateral Vernier calliper measurements and tumour volume calculated using Mousetrap software. Mice were randomized into […]
(§3) treatment groups when mean tumour volume reached ~0.2 cm 3. AZD7648 was formulated in 0.5% hydroxypropyl methylcellulose (HPMC)/0.1% Tween80 (HPMC/T) and orally dosed (4–100 mg/kg). When dosed twice daily (bid), the time between the morning and evening doses was 8 hours. Targeted irradiation of 2 Gy was delivered over 2 minutes daily over the first 5 days of treatment. Liposomal doxorubicin (Doxoves) was diluted in physiological saline and intravenously dosed at 2.5 or 5 mg/kg once per week. Olaparib was formulated in 10% DMSO/30% Kleptose and orally dosed at 100 mg/kg once daily.
(§4) HPMC/T. Tumour growth inhibition from start of treatment was assessed by co mparison of the mean change in tumour volume for the control and treated groups, using the Mousetrap application and represented as tumour growth inhibition (TGI). Statistical significance was evaluated using a one-tailed t-test. HBCx-17 PDX study was carried out at XenTech, France in accordance with French regulatory legislation concerning the protection of laboratory animals. CTG-703, CTG-0828 and CTG-0149 PDX studies were carried out at Champions Oncology, Inc., USA in accordance to the guidelines of the Institutional Animal Care and Use Committee (IACUC) of Champions Oncology and the USA regulatory legislation. CDX and OV2022 PDX studies were conducted in the UK in accordance with UK Home Office legislation, the Animal Scientific Procedures Act 1986, and AstraZeneca’s global bioethics policy. Experimental details are outlined in Home […]
(§5) Blood samples were taken via venipuncture of the tail vein. Whole blood was mixed 1: 5 with PBS and centrifuged at 1500g for 3 minutes at 4°C, and the plasma was extracted […]
(§6) was prepared using an appropriate dilution factor and compared against an 11-point standard calibration curve (1–10,000 nM) prepared in DMSO and spiked into bl ank plasma. Acetonitrile (100 µL) was added with the internal standard, followed by centrifugation at 3000 rpm for 10 minutes. Supernatant (50 µL) was then diluted in 300 µL water and analysed with ultra-performance liquid chromatography–tandem mass […]
(§7) Xenograft sample preparation
(§8) Animals were euthanized and tumour samples snap frozen in liquid nitrogen or fixed in formalin and paraffin embedded for subsequent analysis. Tumour pieces were lysed in […]

[2] = test system: OV2022 ovarian PDX; assay: PDX efficacy study; type: in vivo, mice; conditions: AZD7648 single agent
Experimental: as §1, §2, §3, §4, §5, §6, §7, §8

[3] = test system: CTG-703 ovarian PDX; assay: PDX efficacy study; type: in vivo, mice; conditions: AZD7648 single agent
Experimental: as §1, §2, §3, §4, §5, §6, §7, §8

[4] = test system: CTG-0149 H&N PDX; assay: PDX efficacy study; type: in vivo, mice; conditions: AZD7648 single agent
Experimental: as §1, §2, §3, §4, §5, §6, §7, §8

[5] = test system: FaDu ATM KO cells; assay: Cell proliferation (GI50), Live/Dead assay; type: cell-based; conditions: Homo sapiens, read-out: GI50 (near 50% of maximal inhibition of cell proliferation)
Description: (§9) by Live/Dead assay in A) UWB1.289 and UWB1.289 complemented with wild-type BRCA1 (UWB1.289 + BRCA1), DLD1 and DLD1 with the BRCA2 gene knocked out (DLD1 BRCA2 KO), and B) FaDu and A549 cells with the ATM gene knocked out (ATM KO) compared with their WT counterpart. Graphs represent percentage viable cells ± SD following 7 days’ treatment relative to DMSO vehicle-treated controls from one representative experiment of at least three independent experiments. Tables describe […]
(§10) and A549 ATM KO cells compared with their WT counterparts following 7 days’ treatment.
(§11) Mean pGI50 (–log [GI50]) ± SEM, geometric mean GI50, number of experimental repeats (n) and 95% confidence interval are described. C) Colony formation assay was performed on FaDu and A549 ATM KO and WT cells treated with increasing concentrations of olaparib. Graphs represent percentage surviving fraction of colonies ± SD following 10– 14 days’ treatment relative to DMSO vehicle-treated control from one representative experiment of three independent experiments. […] Mean pIC50
(§12) ± SEM, geometric mean IC50, number of experimental repeats (n) and 95% confidence […]
(§13) 8–14 days or with increasing concentrations of olaparib. Cell colonies were washed with […]
(§14) Mean surviving colonies were calculated from three technical replicates. […]
(§15) before survival fraction was calculated. […]
(§16) and quantified using the Acumen ® Cellista (TTP Labtech). […]

[6] = test system: FaDu and A549 ATM KO cells; assay: Live/Dead assay, AZD7648 monotherapy, ATM KO versus WT isogenic pairs; type: cell-based, human; conditions: AZD7648 single agent
Description: as §9, §10, §11, §12, §13, §14, §15, §16

[7] = test system: UWB1.289 and DLD1 BRCA2 KO cells; assay: Live/Dead assay, AZD7648 monotherapy, BRCA1/BRCA2 isogenic pairs; type: cell-based; conditions: 7 days treatment
Description: as §9, §10, §11, §12, §13, §14, §15, §16

[8] = test system: NCI-H1299 xenografts; assay: Xenograft efficacy study with fractionated IR; type: in vivo, mice
Experimental: as §1
(§17) Tumours were measured (length x width) by bilateral Vernier calliper measurements and tumour volume calculated using Mousetrap software. Mice were randomized into […]
as §3
(§18) HPMC/T. Tumour growth inhibition from start of treatment was assessed by co mparison of the mean change in tumour volume for the control and treated groups, using the Mousetrap application and represented as tumour growth inhibition (TGI). Statistical significance was evaluated using a one-tailed t-test. […]
as §6, with “Acetonitrile (100 µL) was added with the internal standard, followed by centrifugation at 3000 rpm for 10 minutes.” left out

[9] = test system: A549 xenografts; assay: Xenograft efficacy study with fractionated IR; type: in vivo, mice
Experimental: as §1, §17, §3, §18
as §6, with “Acetonitrile (100 µL) was added with the internal standard, followed by centrifugation at 3000 rpm for 10 minutes.” left out

[10] = test system: A549 xenografts; assay: Pharmacodynamic biomarkers by immunohistochemistry after IR; type: in vivo, mice; conditions: single dose AZD7648 100 mg kg−1, 1 h before IR 6 Gy

SMILES: Cc1cc2ncnn2cc1Nc1ncc2c(n1)n(C1CCOCC1)c(=O)n2C [AZD7648]
- TGI [1]: too variable to assess the group effect
- TGI [2]: 60–80%
- TGI [3]: 60–80%
- TGI [4]: 60–80%
- GI50 [5]: ~0.6 µM
- greater sensitivity of ATM KO cells compared with isogenic WT cells [6]: > 10 fold
- effect of loss of BRCA1 or BRCA2 on sensitivity to monotherapy [7]: did not sensitize
- tumour regression ([8]; AZD7648 50 mg kg−1 qd × 21 days + IR 2 Gy qd × 5 days): 55%
- tumour regression ([8]; AZD7648 100 mg kg−1 qd × 21 days + IR 2 Gy qd × 5 days): 85%
- tumour growth inhibition (TGI) ([9]; AZD7648 100 mg kg−1 qd oral + IR 2 Gy for five consecutive days): 90%
- tumour response to single-agent treatment ([9]; AZD7648 100 mg kg−1 qd oral, single agent): insensitive
- IR-induced increases in pDNA-PKcs Ser2056 and γH2AX [10]: abolished
